# Data as given in paper PMC6863074 (Journal of medicinal chemistry, 2015).
# “Also recorded” adds a separate entry of the source.
# Tested on: S. aureus ATCC 29213
# Assay: MIC determination, S. aureus ATCC 29213
# Settings: for antibacterial activity (in words): S. aureus ATCC 29213 MIC screening, active = MIC ≤ 8 μg/mL
Structure (SMILES),antibacterial activity (in words),"MIC (Staphylococcus aureus, ATCC29213|MSSA) [µg/mL]"
Nc1ccc(-c2nc(-c3ccc(Oc4ccccc4)cc3)no2)cc1 [58a],low MIC values,
Nc1ccc(-c2nc(-c3ccc(Oc4ccc(C(F)(F)F)cc4)cc3)no2)cc1 [58b],low MIC values,
Nc1ccc(-c2nc(-c3ccc(Oc4ccc(F)cc4)cc3)no2)cc1 [58c],no antibiotic activity,
Brc1c[nH]nc1-c1nc(-c2ccc(Oc3ccccc3)cc2)no1 [61a],,≤ 1
"Nc1c[nH]nc1-c1nc(-c2ccc(Oc3ccc(C(F)(F)F)cc3)cc2)no1 [64b, 3-(3-(4-(4-(Trifluoromethyl)phenoxy)phenyl)-1,2,4-oxadiazol-5-yl)-1H-pyrazol-4-amine]",tolerated,
CC(C)Nc1c[nH]nc1-c1nc(-c2ccc(Oc3ccccc3)cc2)no1 [65a],active,
N#Cc1c[nH]nc1-c1nc(-c2ccc(Oc3ccc(C(F)(F)F)cc3)cc2)no1 [67b],maintained good activity,
OCC#Cc1c[nH]nc1-c1nc(-c2ccc(Oc3ccc(C(F)(F)F)cc3)cc2)no1 [68b],maintained good activity,
Oc1ccc(-c2nc(-c3ccc(Oc4ccc(C(F)(F)F)cc4)cc3)no2)cc1O [69b],retained activity,
Oc1c(F)cc(-c2nc(-c3ccc(Oc4ccc(C(F)(F)F)cc4)cc3)no2)cc1F [71b],without significant loss of activity,
Nc1ccc(-c2nc(-c3ccc(Oc4ccc(C(F)(F)F)cc4)cc3)no2)cc1F [72b],without significant loss of activity,
Nc1c(F)cc(-c2nc(-c3ccc(Oc4ccccc4)cc3)no2)cc1F [73a],without significant loss of activity,
"FC(F)(F)c1ccc(Oc2ccc(-c3noc(-c4c[nH]cn4)n3)cc2)cc1 [76b, 5-(1H-Imidazol-4-yl)-3-(4-(4-(trifluoromethyl)phenoxy)phenyl)-1,2,4-oxadiazole]",retained good activity,
O=[N+]([O-])c1cc(-c2nc(-c3ccc(Oc4ccc(C(F)(F)F)cc4)cc3)no2)cnc1O [77b],retained good activity,
O=[N+]([O-])c1c[nH]c(-c2nc(-c3ccc(Oc4ccc(C(F)(F)F)cc4)cc3)no2)c1 [78b],retained good activity,
O=[N+]([O-])c1c[nH]c(-c2nc(-c3ccc(Oc4ccc(F)cc4)cc3)no2)c1 [78c],generally abolish antibacterial activity,
Fc1ccc(-c2nc(-c3ccc(Oc4ccccc4)cc3)no2)cc1 [80a],loss of activity,
FC(F)(F)c1ccc(Oc2ccc(-c3noc(-c4ccc(Br)cc4)n3)cc2)cc1 [81b],loss of activity,
O=[N+]([O-])c1ccc(-c2nc(-c3ccc(Oc4ccccc4)cc3)no2)cc1 [82a],loss of activity,
O=P(O)(O)c1ccc(-c2nc(-c3ccc(Oc4ccc(F)cc4)cc3)no2)cc1 [84c],loss of activity; also recorded: attenuate or abrogate activity,
NS(=O)(=O)c1ccc(-c2nc(-c3ccc(Oc4ccc(C(F)(F)F)cc4)cc3)no2)cc1 [87b],failed to show activity; also recorded: attenuate or abrogate activity,
NS(=O)(=O)c1ccc(-c2nc(-c3ccc(Oc4ccc(F)cc4)cc3)no2)cc1 [87c],attenuate or abrogate activity,
NC(=O)c1ccc(-c2nc(-c3ccc(Oc4ccc(F)cc4)cc3)no2)cc1 [88c],failed to show activity; also recorded: attenuate or abrogate activity,
O=C(O)c1ccc(-c2nc(-c3ccc(Oc4ccc(F)cc4)cc3)no2)cc1 [89c],failed to show activity; also recorded: attenuate or abrogate activity,
